Test results: patent US10450260B2, “NO- and H2S-releasing compounds” (RESEARCH FOUNDATION OF THE CITY UNIVERSITY OF NEW YORK, priority 2011, dated 2019)
Like-named read-outs stand apart in the source and are kept apart here.

Experiments:
Assay type in all cases: cell-based
[1] = tested on: HT-29 human colon cancer cells; assay: MTT cell growth inhibition, HT-29; conditions: for IC50: Homo sapiens; for Ratio NSAID/NOSH-NSAID, HT-29: fold-enhancement in potency over the parent compound
Procedure: HT-29, SW-480 and HCT-15 human colon adenocarcinoma, MIA PaCa-2 and BxPC-3 human pancreatic cancer, LNCAP human prostate cancer, A549 human lung cancer, MCF-7 (estrogen receptor positive), MDA-MB 231 and SK-BR-3 (estrogen receptor negative) human breast cancer, and Jurkats human leukemia cell lines were obtained from American Type Tissue Collection (Manassas, Va.). All cells lines were grown as monolayers except for the Jurkats which were grown in suspension. The pancreatic and breast cancer cells were grown in Dulbecco's modified Eagle's medium, the prostate, Jurkat, SW-480 and HCT-15 colon cells were grown in RPMI 1640 medium, the lung cells were grown in F-12 and the colon HT-29 cells were grown in McCoy 5A. All media were supplemented with 10% fetal calf serum (Invitrogen, Carlsbad, Calif.) penicillin (50 U/ml), and streptomycin (50 μg/ml) (Invitrogen, Carlsbad, Calif.). Cells were seeded on culture dishes at a density of 25×10^3 cells/cm^2 and incubated at 37° C. in 5% CO2 and 90% relative humidity. Single cell suspensions were obtained by trypsinization (0.05% trypsin/EDTA), and cells were counted using a hemocytometer. Viability was determined by the trypan blue dye exclusion method.
(§1) Cell growth inhibitory effect of NOSH compounds were measured using a colorimetric MTT assay kit (Roche, Indianapolis, Ind.). Cancer cells were plated in 96-well plates at a density of 50,000 cells/well. The cells were incubated for 24 h with different concentrations of NOSH compounds. After the indicated time, 10 μl of MTT dye (3-[4,5-dimethylthiazol-2-yl]-2,5-diphenyl tetrazolium bromide, 5 mg/ml in phosphate buffered saline), was added to each well, and the plates were incubated for 2 hours at 37° C. Then, the media was aspirated, and add 100 μl of the solubilization solution (10% SDS in 0.01 M HCl) was added to each well to solubilize the formant crystals. The absorbance of the plates was measured on an ELISA reader at a wavelength of 570 nm. Each sample was performed in triplicate, and the entire experiment was repeated three times.
HT-29 human colon cancer cells were obtained from American Type Tissue Collection (Manassas, Va.) and grown as monolayer in McCoy 5A media that was supplemented with 10% fetal calf serum (Invitrogen, Carlsbad, Ca.), penicillin (50 U/ml), and streptomycin (50 μg/ml) (Invitrogen, Carlsbad, Calif.).
Growth inhibition was measured using a colorimetric MTT assay kit (Roche, Indianapolis, Ind.). Proliferation (PCNA) was assessed using an ELISA kit from Calbiochem, (La Jolla, Calif.). Cell cycle phase distributions and apoptosis of control and treated cells were determined as previously described. All methods are described in Chattopadhyay et al., Biochemical Pharmacology, 2012, 83(6), 715-722.
HT-29, SW-480 and HCT-15 human colon adenocarcinoma, MIA PaCa-2 and BxPC-3 human pancreatic cancer, LNCAP human prostate cancer, A549 and H383 human lung cancer, MCF-7, MDA-MB 231 and SK-BR-3 human breast cancer and Jurkat T cell human leukemia cell lines were obtained from American Type Tissue Collection (Manassas, Va.) All cells lines were grown as monolayers except for the Jurkat T cells which were grown as suspension culture. The pancreatic and breast cancer cells were grown in Dulbecco's modified Eagle's medium, the prostate, Jurkat, SW-480 and HCT-15 colon cells were grown in RPMI 1640 medium, the lung cells were grown in F-12 and the colon HT-29 cells were grown in McCoy 5A. All media were supplemented with 10% fetal calf serum (Invitrogen, Carlsbad, Calif.) penicillin (50 U/ml), and streptomycin (50 μg/ml) (Invitrogen, Carlsbad, Calif.). Cells were seeded on culture dishes at a density of 25×10^3 cells/cm^2 and incubated at 37° C. in 5% CO2 and 90% relative humidity. Single cell suspensions were obtained by trypsinization (0.05% trypsin/EDTA), and cells were counted using a hemacytometer. The final DMSO concentration was adjusted in all media to 1%. Viability was determined by the trypan blue dye exclusion method. […]

[2] = tested on: Jurkat T cell human leukemia; assay: MTT cell growth inhibition, Jurkat; conditions: for IC50: Homo sapiens, Jurkat; for Ratio NSAID/NOSH-NSAID, Jurkat: fold-enhancement in potency over the parent compound
Procedure: (§2) All cells lines were grown as monolayers except for the Jurkats which were grown in suspension. […] All media were supplemented with 10% fetal calf serum (Invitrogen, Carlsbad, Calif.) penicillin (50 U/ml), and streptomycin (50 μg/ml) (Invitrogen, Carlsbad, Calif.). Cells were seeded on culture dishes at a density of 25×10^3 cells/cm^2 and incubated at 37° C. in 5% CO2 and 90% relative humidity. Single cell suspensions were obtained by trypsinization (0.05% trypsin/EDTA), and cells were counted using a hemocytometer. Viability was determined by the trypan blue dye exclusion method.
as §1
(§3) All media were supplemented with 10% fetal calf serum (Invitrogen, Carlsbad, Calif.) penicillin (50 U/ml), and streptomycin (50 μg/ml) (Invitrogen, Carlsbad, Calif.). Cells were seeded on culture dishes at a density of 25×10^3 cells/cm^2 and incubated at 37° C. in 5% CO2 and 90% relative humidity. Single cell suspensions were obtained by trypsinization (0.05% trypsin/EDTA), and cells were counted using a hemacytometer. The final DMSO concentration was adjusted in all media to 1%. Viability was determined by the trypan blue dye exclusion method.
(§4) Cell growth inhibitory effect of all NOSH-NSAIDs was measured using a colorimetric MTT assay kit (Roche, Indianapolis, Ind.). Cancer cells were plated in 96-well plates at a density of 30,000-50,000 cells/well depending on cell type. The cells were incubated for 24 hours with different concentrations of NOSH-NSAIDs. After the indicated time, 10 μL of MTT dye (3-[4,5-dimethylthiazol-2-yl]-2,5-diphenyl tetrazolium bromide, 5 mg/mL in phosphate buffered saline), was added to each well, and the plates were incubated for 2 hours at 37° C. Then, the media was aspirated, and 100 μL of the solubilization solution (10% SDS in 0.01 M HCl) was added to each well to solubilize the formant crystals. The absorbance of the plates was measured on a spectrophotometric plate reader at a wavelength of 570 nm. Each experiment was performed in triplicate, and the entire experiment was repeated three times.

[3] = tested on: SW-480 human colon adenocarcinoma; assay: MTT cell growth inhibition, SW480; conditions: for IC50: Homo sapiens, SW480; for Ratio NSAID/NOSH-NSAID, SW480: fold-enhancement in potency over the parent compound
Procedure: as §2, §1, §3, §4

[4] = HT-29, 24 h (Table 5), in combinations the IC50 of ASA with fixed concentrations of SNAP and/or ADT-OH, read-out: IC50 at 24 hours for HT-29 cell growth inhibition
[5] = HT-29 cells, 24 h, read-out: IC50, 24 h
[6] = HT-29 colon cancer cells, 24 hours (Table 3), read-out: IC50 at 24 hours for cell growth inhibition
[7] = HT-29, 24 hours, read-out: IC50 for cell growth inhibition, Colon HT-29
[8] = HT-29, 24 hours (Table 7), read-out: IC50 for cell growth inhibition, Colon HT-29

| IC50 ([2]; 24 hours) | IC50 ([3]; 24 hours) | IC50 [1, 7] | SMILES | IC50 ([2]; 24 hours (Table 7)) | IC50 ([3]; 24 hours (Table 7)) | IC50 [1, 8] | other results |
| --- | --- | --- | --- | --- | --- | --- | --- |
| – | – | – | CC(=O)Oc1ccccc1C(=O)O [ASA, aspirin, reference compound] | – | – | – | IC50 [1, 4]: > 1000 µM; IC50 [1, 5]: > 5000 µM; IC50 [1, 6]: > 5000 µM |
| 0.09 ± 0.005 µM | 0.097 ± 0.007 µM | 0.08 ± 0.005 µM | O=C(CCC(=O)Oc1ccccc1C(=O)Oc1ccc(-c2cc(=S)ss2)cc1)OCCCCO[N+](=O)[O-] [NOSH-2, 4-(nitrooxy)butyl (2-((4-(3-thioxo-3H-1,2-dithiol-5-yl)phenoxy)carbonyl)phenyl) succinate] | – | – | – | – |
| 7 ± 0.321 µM | 5.3 ± 0.24 µM | 7.5 ± 0.355 µM | NC(=S)c1ccc(OC(=O)c2ccccc2OC(=O)CCCO[N+](=O)[O-])cc1 [NOSH-3, 4-carbamothioylphenyl 2-((4-(nitrooxy)butanoyl)-oxy)benzoate] | – | – | – | – |
| 0.24 ± 0.011 µM | 0.6 ± 0.025 µM | 0.3 ± 0.035 µM | O=C(CCCC[C@@H]1CCSS1)Oc1ccccc1C(=O)OCCCCO[N+](=O)[O-] [NOSH-4, (R)-4-(nitrooxy)butyl 2-((5-(1,2-dithiolan-3-yl)pentanoyl)oxy)benzoate] | – | – | – | – |
| – | – | – | CC(C(=O)Oc1ccc(-c2cc(=S)ss2)cc1)c1ccc2cc(OC(=O)CCCO[N+](=O)[O-])ccc2c1 (stereo not drawn) [NOSH-7, 6-(1-oxo-1-(4-(3-thioxo-3H-1,2-dithiol-5-yl)phenoxy)propan-2-yl)naphthalen-2-yl 4-(nitrooxy)butanoate] | 0.1 µM | 0.098 µM | 0.08 µM | Ratio NSAID/NOSH-NSAID, Jurkat [2]: 25,500; Ratio NSAID/NOSH-NSAID, SW480 [3]: 31,734; Ratio NSAID/NOSH-NSAID, HT-29 [1]: 34,687 |
| – | – | – | CC1=C(CC(=O)Oc2ccc(OC(=O)CCCO[N+](=O)[O-])c(C(=O)Oc3ccc(-c4cc(=S)ss4)cc3)c2)c2cc(F)ccc2/C1=C/c1ccc([S+](C)[O-])cc1 (stereo not drawn) [NOSH-8, (E)-4-(3-thioxo-3H-1,2-dithiol-5-yl)phenyl 5-(2-(5-fluoro-2-methyl-1-(4-(methylsulfinyl)benzylidene)-1H-inden-3-yl)acetoxy)-2-((4-(nitrooxy)butanoyl)oxy)benzoate] | 0.27 µM | 0.11 µM | 0.089 µM | Ratio NSAID/NOSH-NSAID, Jurkat [2]: 2,588; Ratio NSAID/NOSH-NSAID, SW480 [3]: 6,454; Ratio NSAID/NOSH-NSAID, HT-29 [1]: 8,988 |
| – | – | – | COc1ccc2cc([C@H](C)C(=O)O)ccc2c1 [naproxen, reference compound] | – | – | 2780 µM | – |
| – | – | – | CC1=C(CC(=O)O)c2cc(F)ccc2/C1=C\c1ccc([S+](C)[O-])cc1 (stereo not drawn) [sulindac, reference compound] | 699 µM | 710 µM | 800 µM | – |

| SMILES | IC50 ([2]; 24 hours) | IC50 ([3]; 24 hours) | IC50 [1, 7] | IC50 ([2]; 24 hours (Table 7)) | IC50 ([3]; 24 hours (Table 7)) | IC50 [1, 8] | other results |
| --- | --- | --- | --- | --- | --- | --- | --- |
| O=C(CCCO[N+](=O)[O-])Oc1ccccc1C(=O)Oc1ccc(-c2cc(=S)ss2)cc1 [NOSH-1, 4-(3-thioxo-3H-1,2-dithiol-5-yl)phenyl 2-((4-(nitrooxy)butanoyl)oxy)benzoate] | 0.1 ± 0.008 µM | 0.06 ± 0.004 µM | 0.048 ± 0.003 µM | – | – | – | potency of intact NOSH-1 over the combination ASA plus SNAP and ADT-OH ([1]; HT-29, 24 h): approximately 9000 fold; Potency enhancement (ratio of IC50 values ASA/NOSH-1), 24 h ([1]; HT-29 cells, 24 h): >100,000 fold; IC50 [1, 4]: 0.05 ± 0.005 µM; IC50 [1, 5]: 0.0455 ± 0.0025 µM; IC50 [1, 6]: 0.05 ± 0.003 µM |
